# Marks after values point to notes of the source that are not given here.
# Tests used:
# Type in all cases: in vivo, human
# [1] = system: A/H3N2 strain A/Victoria/361/11; assay: HI titer and seroconversion to heterologous influenza strain; settings: for Percentage of subjects who seroconvert to heterologous strain A/H3N2 A/Victoria/361/11: 4 weeks after seasonal influenza vaccination
# [2] = system: PD-1 positive CD4 and CD8 T cells; assay: Immunophenotyping of PBMC by flow cytometry
# [3] = system: B/Brisbane/60/2008; assay: Hemagglutination inhibition titer and seroconversion after 2012 seasonal influenza vaccination; settings: for HI GMT ratio, B: GMT at week 4 post vaccination/GMT at baseline; for Percent of subjects with seroconversion, B: 4 weeks after vaccination
# Description: (§1) Results were expressed as fluorescence intensity.
# (§2) The primary analysis of geometric mean titer ratios was done using a normal Bayesian regression model with non-informative priors. This model was fitted to each antibody titer on the log scale. The primary outcome in each model was the Day 84 measurement. The Day 63 measurement was included in the outcome vector. The model fitted using SAS 9.2 proc mixed with the prior statement. The covariance structure of the matrix was considered as unstructured (option type=UN). A flat prior was used. For the secondary analysis of seroconversion rates, logistic regression was used.
# (§3) The ability of RAD001 to improve immune function in elderly volunteers was evaluated by measuring the serologic response to the 2012 seasonal influenza vaccine. The hemagglutination inhibition (HI) geometric mean titers (GMT) to each of the 3 influenza vaccine strains at baseline and 4 weeks after influenza vaccination are provided in Table 10. The primary analysis variable was the HI GMT ratio (4 weeks post vaccination/baseline). […] This endpoint was chosen because a 1.2-fold increase in the influenza GMT ratio induced by the MF-59 vaccine adjuvant was associated with a decrease in influenza illness (Iob, A et al. (2005) Epidemiol Infect 133:687-693).
# (§4) Rates of seroconversion 4 weeks after influenza vaccination were also evaluated. Seroconversion was defined as the change from a negative pre-vaccination titer (i.e., HI titer <1:10) to post-vaccination HI titer ≥1:40 or at least 4-fold increase from a non-negative (≥1:10) pre-vaccination HI titer.
# [4] = system: H1N1 A/California/07/2009; assay: as above; settings: for HI GMT ratio, A/H1N1: GMT at week 4 post vaccination/GMT at baseline; for Percent of subjects with seroconversion, H1N1: 4 weeks after vaccination
# Description: as §1, §2, §3, §4
# [5] = system: H3N2 A/Victoria/210/2009; assay: as above; settings: for HI GMT ratio, A/H3N2: GMT at week 4 post vaccination/GMT at baseline; for Percent of subjects with seroconversion, H3N2: 4 weeks after vaccination
# Description: as §1, §2, §3, §4
# [6] = Baseline (2 weeks prior to influenza vaccination), 0.5 mg daily, N = 50
# [7] = Baseline (2 weeks prior to influenza vaccination), 5 mg weekly, N = 49
# [8] = Baseline (2 weeks prior to influenza vaccination), 20 mg weekly, N = 49
# [9] = Intention to Treat Population, 0.5 mg, N = 48
# [10] = Intention to Treat Population, 5 mg, N = 49
# [11] = Intention to Treat Population, 20 mg, N = 48
# [12] = Subjects with Baseline Titers <=40, 0.5 mg
# [13] = Subjects with Baseline Titers <=40, 5 mg
# [14] = Subjects with Baseline Titers <=40, 20 mg
# [15] = Week 4 after influenza vaccination, 0.5 mg daily, N = 50
# [16] = Week 4 after influenza vaccination, 5 mg weekly, N = 49
# [17] = Week 4 after influenza vaccination, 20 mg weekly, N = 49
smiles,measurement,setting,value
"CO[C@H]1C[C@@H]2CC[C@@H](C)[C@@](O)(O2)C(=O)C(=O)N2CCCC[C@H]2C(=O)O[C@H]([C@H](C)C[C@@H]2CC[C@@H](OCCO)[C@H](OC)C2)CC(=O)[C@H](C)/C=C(\C)[C@@H](O)[C@@H](OC)C(=O)[C@H](C)C[C@H](C)/C=C/C=C/C=C/1C [RAD001, (1R,9S,12S,15R,16E,18R,19R,21R,23S,24E,26E,28E,30S,32S,35R)-1,18-dihydroxy-12-{(1R)-2-[(1S,3R,4R)-4-(2-hydroxyethoxy)-3-methoxycyclohexyl]-1-methylethyl}-19,30-dimethoxy-15,17,21,23,29,35-hexamethyl-11,36-dioxa-4-aza-tricyclo[30.3.1.04,9]hexatriaconta-16,24,26,28-tetraene-2,3,10,14,20-pentaone]",Percentage of subjects who seroconvert to heterologous strain A/H3N2 A/Victoria/361/11,[1]; 0.5 mg daily,38%
same,Percentage of subjects who seroconvert to heterologous strain A/H3N2 A/Victoria/361/11,[1]; 5 mg weekly,39%*
same,Percentage of subjects who seroconvert to heterologous strain A/H3N2 A/Victoria/361/11,[1]; 20 mg weekly,40%*
same,increase in HI GMT ratio for heterologous strain versus placebo,[1]; RAD001 cohorts,higher
same,H3N2 heterologous strain seroconversion rate,"[1]; pooled RAD001 cohorts, versus 20% placebo, p=0.007",39%
same,percentage of PD-1 negative CD4 T cells compared to placebo,[2]; RAD001 cohorts,increased
same,percentage of CD4 PD-1 positive T cells,"[2]; week 6 and 12, all RAD001 cohorts",decreased from baseline
same,percentage of CD8 PD-1 positive cells,"[2]; week 6 and 12, two lower dose RAD001 cohorts",decreased from baseline
same,"HI GMT, B",[3]; [6],44.2
same,"HI GMT, B",[3]; [7],64.8
same,"HI GMT, B",[3]; [8],58.0
same,"HI GMT ratio, B","[3]; 0.5 mg daily, N = 50",2.5
same,"HI GMT ratio, B","[3]; 5 mg weekly, N = 49",2.2
same,"HI GMT ratio, B","[3]; 20 mg weekly, N = 49",2.1
same,"Percent of subjects with seroconversion, B",[3]; [9],27%
same,"Percent of subjects with seroconversion, B",[3]; [10],22%
same,"Percent of subjects with seroconversion, B",[3]; [11],19%
same,"Percent of subjects with seroconversion, B",[3]; [12],40* Percent
same,"Percent of subjects with seroconversion, B",[3]; [13],33%
same,"Percent of subjects with seroconversion, B",[3]; [14],28%
same,"HI GMT, B",[3]; [15],98.4
same,"HI GMT, B",[3]; [16],117.3
same,"HI GMT, B",[3]; [17],99.2
same,"HI GMT, A/H1N1",[4]; [6],102.8
same,"HI GMT, A/H1N1",[4]; [7],84.2
same,"HI GMT, A/H1N1",[4]; [8],90.1
same,"HI GMT ratio, A/H1N1","[4]; 0.5 mg daily, N = 50",2.6
same,"HI GMT ratio, A/H1N1","[4]; 5 mg weekly, N = 49",2.5
same,"HI GMT ratio, A/H1N1","[4]; 20 mg weekly, N = 49",1.8
same,"Percent of subjects with seroconversion, H1N1",[4]; [9],27%
same,"Percent of subjects with seroconversion, H1N1",[4]; [10],27%
same,"Percent of subjects with seroconversion, H1N1",[4]; [11],17%
same,"Percent of subjects with seroconversion, H1N1",[4]; [12],42%
same,"Percent of subjects with seroconversion, H1N1",[4]; [13],45%
same,"Percent of subjects with seroconversion, H1N1",[4]; [14],36%
same,"HI GMT, A/H1N1",[4]; [15],190.2
same,"HI GMT, A/H1N1",[4]; [16],198.73
same,"HI GMT, A/H1N1",[4]; [17],129.7
same,"HI GMT, A/H3N2",[5]; [6],106.8
same,"HI GMT, A/H3N2",[5]; [7],126.04
same,"HI GMT, A/H3N2",[5]; [8],137.1
same,"HI GMT ratio, A/H3N2","[5]; 0.5 mg daily, N = 50",2.1
same,"HI GMT ratio, A/H3N2","[5]; 5 mg weekly, N = 49",2.0
same,"HI GMT ratio, A/H3N2","[5]; 20 mg weekly, N = 49",2.1
same,"Percent of subjects with seroconversion, H3N2",[5]; [9],27%
same,"Percent of subjects with seroconversion, H3N2",[5]; [10],24%
same,"Percent of subjects with seroconversion, H3N2",[5]; [11],25%
same,"Percent of subjects with seroconversion, H3N2",[5]; [12],64%
same,"Percent of subjects with seroconversion, H3N2",[5]; [13],53%
same,"Percent of subjects with seroconversion, H3N2",[5]; [14],71%
same,"HI GMT, A/H3N2",[5]; [15],194.4
same,"HI GMT, A/H3N2",[5]; [16],223.0
same,"HI GMT, A/H3N2",[5]; [17],223.0

# Reference: patent US10357514B2, “Treatment of cancer using anti-CD19 Chimeric Antigen Receptor” (The Trustees of the University of Pennsylvania, priority 2014, dated 2019)
